Reference: paper PMC11323243, “Novel Inhibitors of SARS-CoV-2 RNA Identified through Virtual Screening” (Journal of Chemical Information and Modeling, 2024)
“Also recorded” adds a separate entry of the source.

These molecules were tested on Omicron (BA.1) SARS-CoV-2 (assay: Antiviral activity, plaque reduction assay on Vero E6 cells). Conditions: not given.
Format: cell-based
With `OCC1CN(Cc2cc3c(cc2Cl)OCO3)CC1CN1CCCCCC1` (centres unmarked) [Compound 269] the “antiviral activity against SARS-CoV-2 (in words)” value (“antiviral activity” below) was “retained activity against the wild-type virus albeit with reduced potency”.
In the case of `OCC1CN(Cc2cc3c(cc2Cl)OCO3)CC1CN1CCOCC1` (centres unmarked) [Compound 178], the “antiviral activity” value is reported as “decrease in potency”.
In the case of `Cc1cc2c(cc1CN1CC(CO)C(CN3CCOCC3)C1)OCCO2` (centres unmarked) [Compound 325], the “antiviral activity” value is reported as “did not inhibit wild-type virus; also recorded: loss of antiviral activity against SARS-CoV-2”.

Same assay, conditions: Severe acute respiratory syndrome coronavirus 2, Vero C1008, 72 h; read-out: EC50, effective concentration inhibiting 50% of the virus
For `OCC1CN(Cc2cc3c(cc2Cl)OCO3)CC1CN1CCCCCC1` (centres unmarked) [Compound 269], the EC50 was 53.9 µM.
`Cc1cc2c(cc1CN1CC(CO)C(CN3CCCC3)C1)OCO2` (centres unmarked) [Compound 789] showed an EC50 of 44 µM.
With `Clc1ccc2c(N3CCN(CCCN4CCN(c5ccnc6cc(Cl)ccc56)CC4)CC3)ccnc2c1` [piperaquine, reference compound] the EC50 was 11.6 µM.
With `OCC1CN(Cc2cc3c(cc2Cl)OCO3)CC1CN1CCOCC1` (centres unmarked) [Compound 178] the EC50 was 103 µM.
For `CN(C)CCN(C)CC1CN(Cc2ccc3c(c2)OCCO3)CC1CO` (centres unmarked) [Compound 570], the EC50 was 38.5 µM.
For `NCCc1ccc(CN2CCC(O)(c3cccc(C(F)(F)F)c3)CC2)cc1` [Compound 188], the EC50 was 17.2 µM.
Molecule `Cc1cc2c(cc1CN1CC(CO)C(CN3CCCCCC3)C1)OCCO2` (centres unmarked) [Compound 194] has an EC50 of 28.9 µM.
For `Cc1cc2c(cc1CN1CC(CO)C(CN3CCN(C)CC3)C1)OCCO2` (centres unmarked) [Compound 782], the EC50 was 4.07 µM.
`OC1CCCN(C2CCN(Cc3ncc[nH]3)CC2)C1` (centres unmarked) [Compound 21256088] showed an EC50 greater than 100 µM.
With `Cc1nc(CN)cc(N2CCC(C(O)c3nccn3C)CC2)n1` (centres unmarked) [Compound 32807865] the EC50 was greater than 100 µM.
For `OC1CN(Cc2cccc3cc[nH]c23)CCN(c2ccncc2)C1` (centres unmarked) [Compound 229], the EC50 was 26.8 µM.
